Ends that are not written are not given here.
T1: αENaC (Homo sapiens, UniProt P37088)
T1 sequence (P37088 1-669): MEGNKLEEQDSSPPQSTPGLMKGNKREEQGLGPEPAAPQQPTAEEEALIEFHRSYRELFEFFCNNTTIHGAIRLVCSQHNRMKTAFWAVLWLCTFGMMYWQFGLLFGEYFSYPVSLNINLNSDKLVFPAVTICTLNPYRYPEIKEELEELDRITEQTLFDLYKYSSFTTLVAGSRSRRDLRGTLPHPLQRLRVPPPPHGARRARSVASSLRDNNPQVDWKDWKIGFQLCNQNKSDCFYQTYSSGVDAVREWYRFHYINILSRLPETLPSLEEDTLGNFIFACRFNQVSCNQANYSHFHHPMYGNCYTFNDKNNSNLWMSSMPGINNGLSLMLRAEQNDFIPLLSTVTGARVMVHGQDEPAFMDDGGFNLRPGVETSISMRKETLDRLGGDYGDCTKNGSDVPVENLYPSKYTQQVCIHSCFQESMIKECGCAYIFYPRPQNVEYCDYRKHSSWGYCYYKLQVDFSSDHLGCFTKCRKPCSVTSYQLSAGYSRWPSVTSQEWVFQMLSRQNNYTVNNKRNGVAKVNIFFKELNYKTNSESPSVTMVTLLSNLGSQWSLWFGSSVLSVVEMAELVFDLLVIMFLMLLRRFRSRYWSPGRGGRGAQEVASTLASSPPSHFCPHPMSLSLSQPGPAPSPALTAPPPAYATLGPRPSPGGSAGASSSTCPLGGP

T2: ENaC (Homo sapiens, UniProt P37088+P51168+P51170)
T2 construct: measured the transepithelial voltage under thin film conditions in human bronchial epithelial cultures; endogenous in cells; host or cells: primary human bronchial epithelial cultures (normal or CF donors)
T2 sequence (P37088 1-669): T1 sequence (P37088 1-669)
T2 sequence (P51168 1-640): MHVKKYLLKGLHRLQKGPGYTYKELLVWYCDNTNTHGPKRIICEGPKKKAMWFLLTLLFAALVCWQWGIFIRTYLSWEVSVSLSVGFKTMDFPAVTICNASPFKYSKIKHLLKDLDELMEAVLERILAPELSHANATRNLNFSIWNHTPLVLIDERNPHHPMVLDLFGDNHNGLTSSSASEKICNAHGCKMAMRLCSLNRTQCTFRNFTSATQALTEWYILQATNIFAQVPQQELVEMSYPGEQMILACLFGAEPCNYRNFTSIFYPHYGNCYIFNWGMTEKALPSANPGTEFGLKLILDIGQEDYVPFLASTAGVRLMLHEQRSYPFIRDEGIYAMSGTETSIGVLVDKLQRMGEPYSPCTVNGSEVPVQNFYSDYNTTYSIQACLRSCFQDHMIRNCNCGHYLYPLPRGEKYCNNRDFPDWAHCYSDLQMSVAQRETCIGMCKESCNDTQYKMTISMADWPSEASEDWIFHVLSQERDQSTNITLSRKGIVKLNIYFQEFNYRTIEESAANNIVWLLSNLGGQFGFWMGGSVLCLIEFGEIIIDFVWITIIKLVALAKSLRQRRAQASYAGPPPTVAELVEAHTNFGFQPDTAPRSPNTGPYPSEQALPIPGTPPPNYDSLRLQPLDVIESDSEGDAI
T2 sequence (P51170 1-649): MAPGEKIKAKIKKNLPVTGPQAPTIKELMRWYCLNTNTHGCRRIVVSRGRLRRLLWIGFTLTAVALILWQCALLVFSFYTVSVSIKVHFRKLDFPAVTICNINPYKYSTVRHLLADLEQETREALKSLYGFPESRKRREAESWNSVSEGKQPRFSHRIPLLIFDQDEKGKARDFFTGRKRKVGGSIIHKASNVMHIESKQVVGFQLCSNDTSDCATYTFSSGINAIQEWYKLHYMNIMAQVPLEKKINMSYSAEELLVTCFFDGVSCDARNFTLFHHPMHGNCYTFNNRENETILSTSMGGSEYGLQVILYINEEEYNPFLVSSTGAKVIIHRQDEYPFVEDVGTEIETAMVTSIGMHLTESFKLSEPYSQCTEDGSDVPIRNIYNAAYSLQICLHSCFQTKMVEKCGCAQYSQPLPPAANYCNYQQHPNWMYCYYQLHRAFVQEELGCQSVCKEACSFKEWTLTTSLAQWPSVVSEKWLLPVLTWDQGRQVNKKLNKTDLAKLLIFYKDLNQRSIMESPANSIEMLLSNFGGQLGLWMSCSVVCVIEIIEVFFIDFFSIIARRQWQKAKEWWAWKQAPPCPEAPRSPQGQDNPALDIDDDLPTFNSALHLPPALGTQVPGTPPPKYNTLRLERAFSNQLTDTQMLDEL

B1: SPLUNC1: human SPLUNC1 (SEQ ID NO:1), 256 amino acid secreted PLUNC family protein; rSPLUNC1 is the purified V5/6His-tagged recombinant form (protein, listed as Homo sapiens)
chain: MFQTGGLIVFYGLLAQTMAQFGGLPVPLDQTLPLNVNPALPLSPTGLAGSLTNALSNGLLSGGLLGILENLPLLDILKPGGGTSGGLLGGLLGKVTSVIPGLNNIIDIKVTDPQLLELGLVQSPDGHRLYVTIPLGIKLQVNTPLVGASLLRLAVKLDITAEILAVRDKQERIHLVLGDCTHSPGSLQISLLDGLGPLPIQGLLDSLTGILNKVLPELVQGNVCPLVNEVLRGLDITLVHDIVNMLIHGLQFVIKV
modifications: V5/6His tag in recombinant form
notes: rSPLUNC1 is the purified V5/6His-tagged recombinant form

Legend:
[1] = molecular target: T1, αENaC; assay: Biotinylated peptide pull-down of ENaC subunits from HEK293T cells; format: binding; parameters: expressed in transfected cells; host or cells: HEK293T cells (lysate); settings: subunits individually expressed
Method: HEK293T cells were transfected with double-tagged human ENaC subunits with HA and V5 epitopes at the N- and C-termini, respectively, in combination with wild-type untagged subunit cDNA. When all three ENaC subunits were expressed, 0.5 μg of each subunit were transfected per well. When expressed individually, 0.75 μg of the subunit were transfected per well. The transfected cells were lysed 24 h later using NP-40 buffer with 1× complete EDTA-free protease inhibitor (Roche, Basel, Switzerland). The lysate was centrifuged at 16,300×g for 15 minutes at 4° C. and the supernatant collected. Protein concentration was determined using the BCA assay and 500 μg of protein plus 0.25 mg peptide and 100 μL of neutravidin were added to a spin column and rotated end-over-end at 4° C. for 24 h (all ThermoFisher Scientific, Rockford, Ill., USA). Flow-through was collected by centrifugation at 1000×g for 30 s. […] The membrane was probed using 1:1000 anti-V5 antibody (Invitrogen, Carlsbad, Calif., USA) overnight at 4° C. in 3% fish gelatin in TBS-T. The blot was then incubated for 1 h at room temperature with an ECL sheep anti-mouse IgG secondary antibody and detected by ECL reagent (ThermoFisher Scientific, Waltham, Mass., USA) or by incubation with a goat anti-mouse IRDye secondary antibody and analyzed by an Odyssey infrared imaging system (LI-COR Biosciences, Lincoln, Nebr., USA).

[2] = molecular target: T2, ENaC; assay: Transepithelial electrical resistance in human bronchial epithelial cultures; format: cell-based; settings: 50 ng/ml SPLUNC1 30 min or amiloride 10 min; effects not additive
Text: A single-barreled potential difference-sensing electrode was placed in the airway surface liquid by micromanipulator and used in conjunction with a macroelectrode in the serosal solution to measure transepithelial voltage using a voltmeter (World Precision Instruments). […] Transepithelial resistance was routinely measured using the EVOM system (WPI) as previously described ([…] et al., J. Gen. Physiol. 127:591 (2006)).

Row | Molecule | binding to αENaC (pull-down) [1] | increase of transepithelial electrical resistance [2]
1 | GGLPVPLDQTLPLNVNPA [S18] | without any detectable binding | 
2 | B1 |  | ~33%
